The text below walks through data of the Deep4Chem optical property database.

SMILES strings stand for the structures.

This data set can be described thus: photoluminescence quantum yield (fraction); solvent given as SMILES.

Take `FC(F)(F)c1ccc(-c2ccc(-c3cc(-c4ccccn4)nc(-c4ccccn4)c3)cc2)cc1`: where the note is “in ClCCl”, the photoluminescence quantum yield came out at 0.17.
As to `CCCCN1/C(=C\c2c(-c3ccc(N(C)C)cc3)c(=O)c2=O)C=Cc2ccccc21`, the photoluminescence quantum yield reads like this: (in C1CCCCC1) 0.0242; (in Cc1ccccc1) 0.0163; (in ClCCl) 0.001.
`CCC1=C(C)C2=C(c3c(C)cc(C)nc3-c3cccs3)c3c(C)c(CC)c(C)n3[B-](F)(F)[N+]2=C1C`: the photoluminescence quantum yield (in C1CCCCC1) came out at 0.53; the photoluminescence quantum yield (in C1CCOC1) came to 0.46; the photoluminescence quantum yield (in C1COCCO1) is 0.49; the photoluminescence quantum yield (in CC#N) came to 0.45; the photoluminescence quantum yield (in CCCCCC) stood at 0.52; the photoluminescence quantum yield (in CCO) turned out to be 0.47. Besides, the photoluminescence quantum yield runs as follows: (in CCOC(C)=O) 0.47; (in CCOCC) 0.5; (in CN(C)C=O) 0.44; (in CS(C)=O) 0.44; (in Cc1ccccc1) 0.49; (in ClC(Cl)(Cl)Cl) 0.5. Further, the photoluminescence quantum yield (in ClC(Cl)Cl) was 0.49.
For the setting “in CO”, `Oc1cccc(-c2nc(-c3ccccc3)c(-c3ccccc3)[nH]2)c1` displayed a photoluminescence quantum yield of 0.24.
The compound `N=c1oc2cccc3c4c(-c5ccccc5)oc5cccc(c(c1-c1ccccc1)c23)c54` showed a photoluminescence quantum yield (in ClC(Cl)Cl) of 0.04.
As to `COc1cc(-c2nc3c4cccnc4c4ncccc4c3[nH]2)c(OC)cc1/C=C/c1nc2ccccc2[nH]1`, the photoluminescence quantum yield is, setting by setting: (in C1CCOC1) 0.75; (in CC#N) 0.43; (in CO) 0.21; (in ClCCl) 0.62.
The compound `CCCCCCN1C(=O)c2cccc3c(-c4ccc(-c5cc(-c6ccccc6)nn5-c5ccccc5)s4)ccc(c23)C1=O` came in with a photoluminescence quantum yield (in ClCCl) of 0.16.
In the case of `c1ccc(-c2c3c(nc4ccccc24)-c2cc4c(cc2CC3)-c2nc3ccccc3c(-c3ccccc3)c2CC4)cc1`, the photoluminescence quantum yield (in ClC(Cl)Cl) was found to be 0.84.
`O=C(O)c1c2ccccc2c(C(=O)O)c2ccccc12`: the photoluminescence quantum yield (in C1CCOC1) stood at 0.66 and the photoluminescence quantum yield (in CN(C)C=O) amounted to 0.4.
Consider `COC1=[N+]2C(=C(c3ccccc3)c3cc(SC#N)c(OC)n3[B-]2(F)F)C=C1SC#N`, for which the photoluminescence quantum yield is, setting by setting: (in CC#N) 0.1; (in CCCCCC) 0.1; (in CCOC(C)=O) 0.11; (in CO) 0.15; (in ClCCl) 0.17.
`COCCC1=Cc2nc1ccc1[nH]c(cc1CCOC)c1nc(c(OC)cc3[nH]c2cc3CCOC)C(CCOC)=C1`: the photoluminescence quantum yield (in Cc1ccccc1) was determined as 0.18.
For the setting “in ClCCl”, `CN(C)c1ccc(/C=C/c2nc(N3CCOCC3)c3c([n+]2[O-])CCCC3)cc1` had a photoluminescence quantum yield of 0.01.
For the setting “in ClCCl”, `Cc1ccc(N(c2ccc(C)cc2)c2cc(N(c3ccc(C)cc3)c3ccc(C)cc3)c3ccc4cc(C(C)(C)C)cc5ccc2c3c54)cc1` displayed a photoluminescence quantum yield of 0.78.
Turning to `CC1=c2c3c4cccc5cccc(c=3c(C)[n+]2[B-](F)(F)n2c(C)c3cc6c(-c7ccccc7)c7c(c(-c8ccccc8)c6cc3c21)-c1cccc2cccc-7c12)c54`, for the setting “in ClCCl”, the photoluminescence quantum yield turned out to be 0.7.
Turning to `O=c1oc2cccc3c4cccc5ccc6c7cc(F)ccc7c1c(c23)c6c54`, the photoluminescence quantum yield (in C1CCOC1) was 0.216.
Consider `Cc1ccc(-c2ccc(/C=C/c3cccn3C)cn2)nc1`, for which the photoluminescence quantum yield came out at 0.25 (in C1COCCO1); 0.087 (in CC#N); 0.36 (in CCCCCC); 0.2 (in CCO); 0.19 (in CN(C)C=O); 0.18 (in CO). Moreover, the photoluminescence quantum yield runs as follows: (in CS(C)=O) 0.19; (in Cc1ccccc1) 0.25; (in ClC(Cl)Cl) 0.25; (in c1ccccc1) 0.25.
Where the note is “in CCOC(C)=O”, `CCn1ncc2c3c(C#N)c4c5ccccc5n(CC)c4nc3ccc21` had a photoluminescence quantum yield of 0.6.
Where the note is “in O”, `Nc1cccc[nH+]1` yielded a photoluminescence quantum yield of 0.64.
On to `C(/C=C/Nc1ccccc1)=[NH+]c1ccccc1`, for which the photoluminescence quantum yield (in CS(C)=O) stood at 0.08.
Consider `CC1=CC(C)=[N+]2C1=C(c1ccc(I)cc1)c1c(C)cc(C)n1[B-]21OCCO1`, for which the photoluminescence quantum yield (in ClC(Cl)Cl) stood at 0.14.
Regarding `Cc1cc(O)c(-c2[nH]c(=O)n3c2-c2ccccc2C3=O)cc1Cl`, the photoluminescence quantum yield runs as follows: (in CC#N) 0.56; (in CO) 0.3; (in ClCCl) 0.61.
As for `CC1=[N+]2C(=C(Oc3ccc4c(c3)CC[C@@H]3[C@@H]4CC[C@]4(C)C(=O)CC[C@@H]34)c3ccc(C)n3[B-]2(F)F)C=C1c1cc2n(c1)[B-](F)(F)[N+]1=CC=CC1=C2c1c(C)cc(C)cc1C`, the photoluminescence quantum yield was 0.52 (in C1CCCCC1) and 0.12 (in CCOC(C)=O).
For `CC1=[N+]2C(=C(C3=CC4OCCOCCOCCOCCOC4C=C3)c3c4ccccc4c(/C=C/c4ccc(N(C)C)cc4)n3[B-]2(F)F)c2ccccc21` (stereo not drawn), for the setting “in CC#N”, the photoluminescence quantum yield amounted to 0.24.
In the case of `CCn1c(-c2ccc(-c3ccc4c(c3)C(C)(C)c3ccccc3-4)cc2)c(-c2ccc3ccccc3c2)c(-c2ccc3ccccc3c2)c1-c1ccc(-c2ccc3c(c2)C(C)(C)c2ccccc2-3)cc1`, the photoluminescence quantum yield (in CCOC(C)=O) came out at 0.99.
Under “in ClCCl”, `Cc1cc(-c2nc3c4ccccc4c4ccccc4c3n2-c2ccc(C(C)(C)C)cc2)ccc1-c1ccc(-c2c(-c3ccccc3)nc3ccccn23)cc1` registered a photoluminescence quantum yield of 0.77.
Consider `CCOC(=O)c1cc(C(=O)OCC)c2cccc(OCc3ccccc3)c2n1`, for which the photoluminescence quantum yield (in CCO) is 0.2.
As to `CCCCCCN1C(=O)c2cccc3c(-c4ccc(C)s4)ccc(c23)C1=O`, the photoluminescence quantum yield (in ClC(Cl)Cl) was 0.78.
With `F[B-]1(F)n2c(ccc2-c2ccccc2)C(C(F)(F)F)=C2C=CC(c3ccccc3)=[N+]21`, the photoluminescence quantum yield (in CCCCCC) worked out at 0.74.
Where the note is “in C1CCOC1”, `CCC1(CC)c2cc(B(c3c(C)cc(C)cc3C)c3c(C)cc(C)cc3C)ccc2-c2c1c1c(c3c2C(CC)(CC)c2cc(B(c4c(C)cc(C)cc4C)c4c(C)cc(C)cc4C)ccc2-3)C(CC)(CC)c2cc(B(c3c(C)cc(C)cc3C)c3c(C)cc(C)cc3C)ccc2-1` had a photoluminescence quantum yield of 0.34.
Same read-out and setting: under `N#Cc1c(N2CCCCC2)cc(-c2cccs2)c2c1CCc1ccccc1-2` stands 0.21.
As to `COc1ccc(-c2nc(-c3ccc(OC)cc3)c(-c3ccc(OC)cc3)[nH]2)cc1`, the photoluminescence quantum yield (in CO) amounted to 0.2.
As for `C[N+]1=c2ccc3c(c2C(C)(C)CC1)Oc1cc2c(cc1C=3c1ccccc1C(=O)O)C(c1ccccc1C(=O)O)=c1ccc3c(c1O2)C(C)(C)CC[N+]=3C`, the photoluminescence quantum yield (in ClC(Cl)Cl) turned out to be 0.5.
Turning to `O=Cc1nc2ccc(C#Cc3ccc(N(c4ccc(C#Cc5ccc6nc(C=O)sc6c5)cc4)c4ccc(C#Cc5ccc6nc(C=O)sc6c5)cc4)cc3)cc2s1`, the photoluminescence quantum yield (in Cc1ccccc1) was determined as 0.65.
For `CCCC1(CCC)c2cc(-c3ccco3)ccc2-c2ccc(-c3ccco3)cc21`, the photoluminescence quantum yield (in C1CCCCC1) was 0.86.
For `CC1=CC(/C=C/c2ccc(C)cc2)=[N+]2C1=C(c1ccccc1)c1c(C)cc(/C=C/c3ccc(C)cc3)n1[B-]2(F)F`, the photoluminescence quantum yield (in CC1CCCO1) is 0.75.
As for `C(=C\c1cc2ccccc2c2ccccc12)/c1cc2ccccc2c2ccccc12`, where the note is “in C1CCOC1”, the photoluminescence quantum yield was found to be 0.6.
For the compound `CC(=O)c1ccc(-c2cccc3ncc(-c4ccccc4)n23)cc1`, the photoluminescence quantum yield (in ClCCl) stood at 0.43.
In the case of `Cc1cc(C)c(C2=C3C=CC=[N+]3[B-]3(F)Oc4cc(O)cc5c6ccc(C)cc6c6cc2n3c6c45)c(C)c1` (stereo not drawn), the photoluminescence quantum yield (in ClC(Cl)Cl) amounted to 0.35.
For `C(=C\c1cc(/C=C/c2ccc(N(c3ccccc3)c3ccccc3)cc2)nc(/C=C/c2ccc(N(c3ccccc3)c3ccccc3)cc2)n1)/c1ccc(N(c2ccccc2)c2ccccc2)cc1`, where the note is “in ClCCl”, the photoluminescence quantum yield stood at 0.56.
As to `CC(C)(C)NC(=O)c1cccc2ccc3c4ccccc4c4ccccc4c3c12`, for the setting “in ClCCl”, the photoluminescence quantum yield worked out at 0.03.
In turn, `CC(C)(C)c1ccc(-c2cc3c(-c4ccc(C(C)(C)C)cc4)c4cccc5c(-c6ccc(C(C)(C)C)cc6)cc6c(-c7ccc(C(C)(C)C)cc7)c7cccc2c7c3c6c54)cc1` yielded a photoluminescence quantum yield (in C1CCCCC1) of 0.23; a photoluminescence quantum yield (in CC#N) of 0.2; a photoluminescence quantum yield (in CO) of 0.21; a photoluminescence quantum yield (in Cc1ccccc1) of 0.41; a photoluminescence quantum yield (in ClCCl) of 0.27.
On to `O=C([O-])c1ccc(C2=c3cc4c5c(c3Oc3c2cc2c6c3CCCN6CCC2)CCC[N+]=5CCC4)c(C(=O)[O-])c1`, for which the photoluminescence quantum yield (in CCO) was found to be 0.79 and the photoluminescence quantum yield (in O) was 0.6.
On to `COc1cc2c(cc1-c1ccc(C(F)(F)F)cc1)Cc1c3c(c4c(c1-2)-c1cc(OC)c(-c2ccc(C(F)(F)F)cc2)cc1C4)C(=O)N(CCC(C)C)C3=O`, for which, under “in C1CCOC1”, the photoluminescence quantum yield worked out at 0.45.
`Cc1cc(C)n2c1C=C1c3ccccc3C(c3cccn3C)=[N+]1[B-]2(F)F` returned a photoluminescence quantum yield (in C1CCOC1) of 0.96; a photoluminescence quantum yield (in CC#N) of 0.97; a photoluminescence quantum yield (in CCCCCC) of 0.96; a photoluminescence quantum yield (in CO) of 0.98; a photoluminescence quantum yield (in Cc1ccccc1) of 0.94; a photoluminescence quantum yield (in ClCCl) of 0.99.
On to `O=C(c1ccc(N2c3ccccc3Sc3ccccc32)cc1)c1ccc2sc3ccccc3c2c1`, for which the photoluminescence quantum yield by setting is: (in C1CCOC1) 0.005; (in c1ccc2c(c1)c1ccccc1n2-c1ccc(-c2ccc(-n3c4ccccc4c4ccccc43)cc2)cc1) 0.768.
On to `CCN(CC)c1ccc(-n2cccc2)cc1`, for which the photoluminescence quantum yield was 0.13 (in CC#N) and 0.11 (in CCCCCC).
On to `Fc1ccc2cc3cccc[n+]3cc2c1`, for which the photoluminescence quantum yield (in O) turned out to be 0.34.
In the case of `CCC1=C(C)C2=Cc3c4ccccc4c4n3[B-](c3ccccc3)(Oc3ccccc3-4)[N+]2=C1C` (stereo not drawn), the photoluminescence quantum yield (in CC#N) was found to be 0.75, the photoluminescence quantum yield (in CCCCCC) turned out to be 0.77, the photoluminescence quantum yield (in Cc1ccccc1) was 0.64 and the photoluminescence quantum yield (in ClCCl) is 0.75.
Take `CCN(C)c1ccc(C2=C3C(C)=CC(/C=C/c4ccc(OCC(=O)OC)cc4)=[N+]3[B-](F)(F)n3c(C)cc(C)c32)cc1`: the photoluminescence quantum yield (in CO) stood at 0.78.
